Read-outs that look alike come from different tables or passages of the source.
Target: T1, ACE-2 (Homo sapiens, UniProt Q9BYF1)
T1 construct: a stop codon inserted after the serine immediately preceding the transmembrane domain; made in house; host or cells: CHO K1 cells (transient transfection, purified from conditioned medium)
Assay: ACE-2 Competitive Substrate Assay (ACS Assay)
Assay type: biochemical

[1] = Ki class per key, compounds tested in 5% DMSO, 12 compound concentrations, 25° C., Ki=Kiapp/(1+[S]/Km), read-out: Human ACE-2 Activity
[2] = Ki class, compounds tested in 5% DMSO, 12 compound concentrations, Ki=Kiapp/(1+[S]/Km), read-out: Human ACE-2 Activity
[3] = Table 3, very good ACE-2 inhibiting compounds, species not given, read-out: ACE-2 Activity, Ki
[4] = Ki class, compounds tested in 5% DMSO, 12 concentrations, read-out: Human ACE-2 Activity

T1 sequence (Q9BYF1 18-740 limits assumed): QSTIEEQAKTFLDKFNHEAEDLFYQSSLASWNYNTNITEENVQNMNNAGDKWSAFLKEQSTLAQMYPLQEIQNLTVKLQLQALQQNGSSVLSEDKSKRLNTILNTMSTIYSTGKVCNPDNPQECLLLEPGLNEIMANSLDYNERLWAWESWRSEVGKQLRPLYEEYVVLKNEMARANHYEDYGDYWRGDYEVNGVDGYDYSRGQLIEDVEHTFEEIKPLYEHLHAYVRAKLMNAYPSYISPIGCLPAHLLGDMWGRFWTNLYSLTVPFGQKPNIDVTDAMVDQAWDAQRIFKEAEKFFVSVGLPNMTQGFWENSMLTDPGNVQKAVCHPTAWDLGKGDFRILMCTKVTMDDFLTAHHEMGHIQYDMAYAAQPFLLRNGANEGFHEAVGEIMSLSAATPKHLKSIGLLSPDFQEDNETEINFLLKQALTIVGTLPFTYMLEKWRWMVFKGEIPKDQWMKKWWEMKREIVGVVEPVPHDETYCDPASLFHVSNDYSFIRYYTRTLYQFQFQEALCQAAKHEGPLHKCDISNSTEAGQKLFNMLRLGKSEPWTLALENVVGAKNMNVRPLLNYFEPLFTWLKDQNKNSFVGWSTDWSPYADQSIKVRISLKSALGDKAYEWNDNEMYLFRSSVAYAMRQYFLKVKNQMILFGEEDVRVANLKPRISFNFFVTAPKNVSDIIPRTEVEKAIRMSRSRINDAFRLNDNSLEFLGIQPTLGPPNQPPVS

Ki [2] [nM]	SMILES	also measured
	CC(C)C[C@H](N[C@@H](Cc1ccc(N(Cc2cc(F)cc(F)c2)Cc2cc(F)cc(F)c2)cc1)C(=O)O)C(=O)O [RD, 2-(2-(4-[Bis-(3,5-difluoro-benzyl)-amino]-phenyl)-1-carboxy-ethylamino)-4-methyl-pentanoic acid]	Ki [1]: 100 to 500 nM
> 500	CC(C)CC(N[C@@H](Cc1cncn1Cc1ccc(OC(F)(F)F)cc1)C(=O)O)C(=O)O (single isomer, unassigned) [HT, 2-[1-Carboxy-2-[3-(4-trifluoromethoxy-benzyl)-3H-imidazol-4-yl]-ethylamino]-4-methyl-pentanoic acid]	
100 to 500	CC(C)C[C@H](N[C@@H](Cn1ccn(Cc2ccccc2)c1=O)C(=O)O)C(=O)O [LS, 2-[2-(3-Benzyl-2-oxo-2,3-dihydro-imidazol-1-yl)-1-carboxy-ethylamino]-4-methyl-pentanoic acid]	
100 to 500	CC(C)C[C@H](N[C@@H](Cc1ccc(-c2ccc3c(c2)OCO3)o1)C(=O)O)C(=O)O [OJ, (S,S)-2-[2-(5-Benzo[1,3]dioxol-5-yl-furan-2-yl)-1-carboxy-ethylamino]-4-methyl-pentanoic acid]	
< 100	CC(C)C[C@H](N[C@@H](Cc1cccc(OCc2cc(Cl)cc(Cl)c2)c1)C(=O)O)C(=O)O [NY, 2-[1-Carboxy-2-[3-(3,5-dichloro-benzyloxy)-phenyl]-ethylamino]-4-methyl-pentanoic acid]	Ki [3]: 50 to 100 nM
	CC(C)C[C@H](N[C@@H](Cc1ccc(-c2ccc3c(c2)OCO3)cc1)C(=O)O)C(=O)O [OZ, 2-[2-(4-Benzo[1,3]dioxol-5-yl-phenyl)-1-carboxy-ethylamino]-4-methyl-pentanoic acid]	Ki [1]: < 100 nM; Ki [3]: 50 to 100 nM
	CC(C)C[C@H](N[C@@H](Cc1ccc(C(=O)OC(C)(C)C)cc1)C(=O)O)C(=O)O [PU, (S,S) 4-[2-Carboxy-2-(1-carboxy-3-methyl-butylamino)-ethyl]-benzoic acid tert-butyl ester]	Ki [1]: < 100 nM
< 100	CCC(CC)Cn1cncc1C[C@H](NC(CC(C)C)C(=O)O)C(=O)O (single isomer, unassigned) [JM, 2-[1-Carboxy-2-[3-(2-ethylbutyl)-3H-imidazol-4-yl]-ethylamino]-4-methyl-pentanoic acid]	
	CC(C)C[C@H](N[C@@H](Cc1ccc(NC(=O)C2CCCC2)cc1)C(=O)O)C(=O)O [QR, 2-[1-Carboxy-2-[4-(cyclopentanecarbonyl-amino)-phenyl]-ethylamino]-4-methyl-pentanoic acid]	Ki [1]: 100 to 500 nM
100 to 500	CC(C)C[C@H](N[C@@H](CC(=O)Nc1nc2cc(Cl)c(Cl)cc2s1)C(=O)O)C(=O)O [MG, (S,S)-2-[1-Carboxy-2-(5,6-dichloro-benzothiazol-2-ylcarbamoyl)-ethylamino]-4-methyl-pentanoic acid]	
100 to 500	CC(C)C[C@H](N[C@@H](Cn1ccn([C@@H](C)c2ccccc2)c1=O)C(=O)O)C(=O)O [LH, (S,S)-2-{1-Carboxy-2-[2-oxo-3-(1-phenyl-ethyl)-2,3-dihydro-imidazol-1-yl]-ethylamino}-4-methyl-pentanoic acid]	
> 500	CC(C)C[C@H](N[C@@H](Cc1cccc(-c2ccsc2)c1)C(=O)O)C(=O)O [MJ, (S,S)-2-[1-Carboxy-2-(3-thiophen-3-yl-phenyl)-ethylamino]-4-methyl-pentanoic acid]	
> 500	CC(C)C[C@H](N[C@@H](CCNC(=O)c1ccc2ccccc2c1)C(=O)O)C(=O)O [KE]	
	C[C@@H](N[C@@H](CCCNC(=N)N)C(=O)O)C(=O)O [I, 2-(1-Carboxy-ethylamino)-5-guanidino-pentanoic acid]	Ki [4]: > 500 nM
> 500	CC(C)C[C@H](N[C@@H](CN1CCN(c2cc(F)cc(F)c2)C1=O)C(=O)O)C(=O)O [NC, 2-{1-Carboxy-2-[3-(3,5-difluoro-phenyl)-2-oxo-imidazolidin-1-yl]-ethylamino}-4-methyl-pentanoic acid]	
< 100	CC(C)C[C@H](N[C@@H](Cc1cncn1Cc1cc(Cl)cc(Cl)c1)C(=O)O)C(=O)OC(C)(C)C [NM, 2-[1-Carboxy-2-[3-(3,5-dichloro-benzyl)-3H-imidazol-4-yl]-ethylamino)4-methyl-pentanoic acidtert-butyl ester]	Ki [3]: < 50 nM
> 500	CC(C)CC(N[C@@H](Cc1cncn1Cc1ccc(Cl)c(Cl)c1)C(=O)O)C(=O)O (single isomer, unassigned) [GX]	
100 to 500	COc1ccc2nc(NC(=O)C[C@H](N[C@@H](CC(C)C)C(=O)O)C(=O)O)sc2c1 [MO, (S,S)-2-[1-Carboxy-2-(6-methoxy-benzothiazol-2-ylcarbamoyl)-ethylamino]-4-methyl-pentanoic acid]	

Ki [2] [nM]	SMILES	also measured
> 500	Cc1ccc(-c2cccc(C[C@H](N[C@@H](CC(C)C)C(=O)O)C(=O)O)c2)cc1 [LY, (S,S)-2-[1-Carboxy-2-(4′-methyl-biphenyl-3-yl)-ethylamino]-4-methyl-pentanoic acid]	
> 500	CC(C)C[C@H](NC(=O)[C@@H](S)Cc1ccccc1)C(=O)O [KM, 2-(2-Mercapto-3-phenyl-propionylamino)-4-methyl-pentanoic acid]	
	C[C@H](N[C@@H](Cc1cncn1Cc1cc(Cl)cc(Cl)c1)C(=O)O)C(=O)O [PL, (S,S) 2-(1-Carboxy-ethylamino)-3-[3-(3,5-dichloro-benzyl)-3H-imidazol-4-yl]-propionic acid]	Ki [1]: < 100 nM; Ki [3]: < 50 nM
100 to 500	Cc1cc(C)cc(-c2ccc(C[C@H](N[C@@H](CC(C)C)C(=O)O)C(=O)O)o2)c1 [NT, (S,S)-2-{1-Carboxy-2-[5-(3,5-dimethyl-phenyl)-furan-2-yl]-ethylamino}-4-methyl-pentanoic acid]	
< 100	COC(=O)[C@H](Cc1cncn1Cc1cc(Cl)cc(Cl)c1)N[C@@H](CC(C)C)C(=O)OC [MM, 2-{2-[3-(3,5-Dichloro-benzyl)-3H-imidazol-4-yl]-1-methoxycarbonyl-ethylamino}-4-methyl-pentanoic acidmethyl ester]	Ki [3]: < 50 nM
	CC1(C)SC(C(=O)O)NC1C(=O)O (stereo not drawn) [L, 5,5-Dimethyl-thiazolidine-2,4-dicarboxylic acid]	Ki [4]: > 500 nM
< 100	CC(C)C[C@H](N[C@@H](Cc1ccc(Cc2ccccc2)cc1)C(=O)O)C(=O)O [OG, (S,S)-2-[2-(4-Benzyl-phenyl)-1-carboxy-ethylamino]-4-methyl-pentanoic acid]	Ki [3]: 50 to 100 nM
> 500	Cc1cccc(Cn2cncc2C[C@H](NC(CC(C)C)C(=O)O)C(=O)O)c1 (single isomer, unassigned) [HP, 2-[1-Carboxy-2-[3-(3-methyl-benzyl)-3H-imidazol-4-yl]-ethylamino]4-methyl-pentanoic acid]	
> 500	CC(C)CC(N[C@@H](Cc1cncn1Cc1ccc(C(C)C)cc1)C(=O)O)C(=O)O (single isomer, unassigned) [HV, 2-[1-Carboxy-2-[3-(4-isopropyl-benzyl)-3H-imidazol-4-yl]-ethylamino)4-methyl-pentanoic acid]	
> 500	CC(C)C[C@H](N[C@@H](Cc1csc(-c2cccc(C(F)(F)F)c2)n1)C(=O)O)C(=O)O [KD, (S,S)-2-{1-Carboxy-2-[2-(3-trifluoromethyl-phenyl)-thiazol-4-yl-]-ethylamino}-4-methyl-pentanoic acid]	
	CC(C)C[C@H](N[C@@H](Cc1ccc(-c2cnc3ccccc3c2)cc1)C(=O)O)C(=O)O [QC, (S,S)-2-[1-Carboxy-2-(4-quinolin-3-yl-phenyl)-ethylamino]-4-methyl-pentanoic acid]	Ki [1]: < 100 nM; Ki [3]: < 50 nM
< 100	C=CCOc1ccc(C[C@H](N[C@@H](CC(C)C)C(=O)O)C(=O)O)cc1 [LW, 2-[2-(4-Allyloxy-phenyl)-1-carboxy-ethylamino]-4-methyl-pentanoic acid]	Ki [3]: 50 to 100 nM
100 to 500	COC(=O)[C@H](Cc1cncn1Cc1cc(Cl)cc(Cl)c1)N[C@H](CC(C)C)C(=O)O [KY, 2-[2-[3-(3,5-Dichloro-benzyl)-3H-imidazol-4-yl]-1-methoxycarbonyl-ethylamino]-4-methyl-pentanoic acid]	
< 100	Cc1ccc(-c2ccc(C[C@H](N[C@@H](CC(C)C)C(=O)O)C(=O)O)cc2)cc1 [NH, (S,S)-2-[1-Carboxy-2-(4′-methyl-biphenyl-4-yl)-ethylamino]-4-methyl-pentanoic acid]	Ki [3]: < 50 nM
< 100	CC(C)C[C@H](N[C@@H](Cc1cccc(OCc2cccc(Cl)c2)c1)C(=O)O)C(=O)O [OO, S,S-2-{1-Carboxy-2-[3-(3-chloro-benzyloxy)-phenyl]-ethylamino}-4-methyl-pentanoic acid]	Ki [3]: 50 to 100 nM
< 100	CC(C)C[C@H](N[C@@H](Cn1ccn(Cc2cc(Cl)cc(Cl)c2)c1=O)C(=O)O)C(=O)O [LF, (S,S) 2-{1-Carboxy-2-[3-(3,5-dichloro-benzyl)-2-oxo-2,3-dihydro-imidazol-1-yl]-ethylamino}-4-methyl-pentanoic acid]	Ki [3]: 50 to 100 nM
100 to 500	CC(C)C[C@H](N[C@@H](Cn1ccn(Cc2ccc(F)cc2)c1=O)C(=O)O)C(=O)O [NQ, 2-{1-Carboxy-2-[3-(4-fluoro-benzyl)-2-oxo-2,3-dihydro-imidazol-1-yl]-ethylamino}-4-methyl-pentanoic acid]	
	CC(C)C[C@H](N[C@@H](CN1C(=O)CN(Cc2cc(Cl)cc(Cl)c2)C1=O)C(=O)O)C(=O)O [PX, 2-[1-Carboxy-2-[3-(3,5-dichloro-benzyl)-2,5-dioxo-imidazolidin-1-yl]-ethylamino]-4-methyl-pentanoic acid]	Ki [1]: < 100 nM

SMILES	Ki [2] [nM]	also measured
CC(C)CC(N[C@@H](Cc1cncn1Cc1cc(Cl)cc(Cl)c1)C(=O)O)C(=O)O (single isomer, unassigned) [HF, 2-[1-Carboxy-2-[3-(3,5-dichloro-benzyl)-3H-imidazol-4-yl]-ethylamino)4-methyl-pentanoic acid]	100 to 500	

— patent publication US7045532B2 (Millennium Pharmaceuticals, Inc., priority 1999, dated 2006)
